Key:
[1] = molecular target: T1, recombinant CK2A1 (Homo sapiens, UniProt P68400); assay: CK2 kinase assay (CK2A1), [γ-33P]ATP filter-binding; format: biochemical
T1 construct: purchased Invitrogen
Description: (§1) The effectiveness of compounds of the present invention as inhibitors of protein kinases can be readily tested by assays known to those skilled in the art. For example, in vitro protein kinase assays may be conducted with a relevant purified protein kinase and an appropriate synthetic substrate to determine the inhibitory activities of the compounds. […] Reaction mixtures were incubated at 30° C. for 1 h, and reaction products were captured by binding to phosphocellulose (P81) filter plates. Incorporation of radioactive phosphate into the peptide substrate was determined by liquid scintillation counting. The potency of compounds in inhibiting CK2 is expressed as IC50, defined as the concentrations of compounds required to inhibit the enzymatic activity by 50%.

[2] = molecular target: T2, recombinant CK2A2 (Homo sapiens, UniProt P19784); assay: CK2 kinase assay (CK2A2), [γ-33P]ATP filter-binding; format: biochemical
T2 construct: purchased Upstate Biotechnology
T2 sequence (P19784 whole entry): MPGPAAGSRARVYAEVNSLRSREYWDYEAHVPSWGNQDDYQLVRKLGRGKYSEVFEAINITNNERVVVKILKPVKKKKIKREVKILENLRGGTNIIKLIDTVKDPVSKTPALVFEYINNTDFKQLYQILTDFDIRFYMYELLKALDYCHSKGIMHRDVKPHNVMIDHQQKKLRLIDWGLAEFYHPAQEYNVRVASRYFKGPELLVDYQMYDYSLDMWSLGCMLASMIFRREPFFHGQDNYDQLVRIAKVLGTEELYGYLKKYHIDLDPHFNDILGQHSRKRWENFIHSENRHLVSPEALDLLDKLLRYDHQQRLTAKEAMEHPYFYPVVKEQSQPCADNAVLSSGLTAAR
Description: as §1

[3] = test system: HCT116; assay: Cell proliferation inhibition assay (MTT, CellTiter96); format: cell-based; details: Homo sapiens, HCT-116; HCT116 cells, 72 h with compound, MTT readout
Description: B. Cell Proliferation Inhibition Assay
Compounds were evaluated for their ability to inhibit cell proliferation, using an assay that measures mitochondrial metabolic activity, that is directly correlated with cell numbers. Cells were plated at 2000 cells/well in 96-well plates and were cultured for 24 h in RPMI-1640 supplemented with 2% fetal bovine serum, before test compounds were added. Compounds were diluted in culture medium such that the final concentration of dimethyl sulfoxide never exceeded 1%. Following the addition of compounds, the cells were cultured for an additional 72 h before cell viability was determined by measuring the conversion of 3-(4,5-dimethylthiazol-2-yl)-2,5-diphenyltetrazolium bromide (MTT) dye using the CellTiter96 kit (Promega).

[4] = recombinant CK2A1 10 nM, ATP 25 μM, 10 μM peptide substrate, 30° C. 1 h
[5] = recombinant CK2A2 5 nM, ATP 5 μM, 10 μM peptide substrate, 30° C. 1 h
[6] = comparison examples of U.S. 2007/038314 (Table 2)

T1 sequence (P68400 whole entry): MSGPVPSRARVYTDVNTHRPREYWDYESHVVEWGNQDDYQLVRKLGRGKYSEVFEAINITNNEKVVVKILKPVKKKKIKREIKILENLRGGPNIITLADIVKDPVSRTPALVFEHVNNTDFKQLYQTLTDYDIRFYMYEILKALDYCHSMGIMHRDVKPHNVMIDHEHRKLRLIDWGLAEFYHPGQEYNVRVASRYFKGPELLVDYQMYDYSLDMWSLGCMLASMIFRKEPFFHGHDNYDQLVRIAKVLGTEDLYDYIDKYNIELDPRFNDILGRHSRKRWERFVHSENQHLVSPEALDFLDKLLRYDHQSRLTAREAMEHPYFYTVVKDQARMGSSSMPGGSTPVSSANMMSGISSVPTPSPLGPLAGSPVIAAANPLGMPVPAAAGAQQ

IC50 [1, 4] [nM] | IC50 [2, 5] [nM] | IC50 [3] [nM] | IC50 [1, 6] [nM] | IC50 [2, 6] [nM] | Structure (SMILES)
38.5 | 0.2 | 210 | – | – | CN[C@H](C)C(=O)N[C@H]1CC[C@H](Nc2cc(NC3CC3)c3ncc(C(=O)Nc4ccnc(Cl)c4)n3n2)CC1 (relative stereo) [Example 154, N-(2-chloro-4-pyridinyl)-8-(cyclopropylamino)-6-((trans-4-((N-methyl-D-alanyl)amino)cyclohexyl)amino)imidazo[1,2-b] pyridazine-3-carboxamide]
13.8 | 0.7 | 920 | – | – | N[C@H](Cc1cscn1)C(=O)N[C@H]1CC[C@H](Nc2cc(NC3CC3)c3ncc(C(=O)Nc4ccnc(Cl)c4)n3n2)CC1 (relative stereo) [Example 179, N-(2-chloro-4-pyridinyl)-8-(cyclopropylamino)-6-((trans-4-((3-(1,3-thiazol-4-yl)-D-alanyl)amino)cyclohexyl)amino)imidazo[1,2-b]pyridazine-3-carboxamide]
35 | 15 | 80 | – | – | N[C@H]1CC[C@H](Nc2cc(NC3CCC3)c3ncc(C(=O)Nc4ccncc4)n3n2)CC1 [Example 3, 6-((trans-4-aminocyclohexyl)amino)-8-(cyclobutylamino)-N-4-pyridinylimidazo[1,2-b]pyridazine-3-carboxamide]
11 | 3 | 90 | – | – | C[C@@H](N)C(=O)N[C@H]1CC[C@H](Nc2cc(Nc3ccccn3)c3ncc(C(=O)Nc4ccncc4F)n3n2)CC1 [Example 6, 6-((trans-4-(D-alanylamino)cyclohexyl)amino)-N-(3-fluoro-4-pyridinyl)-8-(2-pyridinylamino)imidazo[1,2-b]pyridazine-3-carboxamide]
42 | 17 | 170 | – | – | O=C(Nc1ccnc(F)c1)c1cnc2c(NC3CC3)cc(N[C@H]3CC[C@H](O)CC3)nn12 [Example 13, 8-(cyclopropylamino)-N-(2-fluoro-4-pyridinyl)-6-((trans-4-hydroxycyclohexyl)amino)imidazo[1,2-b]pyridazine-3-carboxamide]
86 | 11 | 170 | – | – | N[C@H]1CC[C@H](Nc2cc(NC3CC3)c3ncc(C(=O)Nc4ccnc(F)c4)n3n2)CC1 [Example 25C, 6-((trans)-4-aminocyclohexylamino)-8-(cyclopropylamino)-N-(2-fluoropyridin-4-yl)imidazo[1,2-b]pyridazine-3-carboxamide]
247 | 72 | 430 | – | – | O=C(Nc1ccnc(F)c1)c1cnc2c(NC3CC3)cc(N[C@H]3CC[C@H](N4CCOCC4)CC3)nn12 [Example 27, 8-(cyclopropylamino)-N-(2-fluoropyridin-4-yl)-6-((trans)-4-morpholinocyclohexylamino)imidazo[1,2-b]pyridazine-3-carboxamide]
11.5 | 0.8 | 170 | – | – | N#CCC(=O)N[C@H]1CC[C@H](Nc2cc(NC3CC3)c3ncc(C(=O)Nc4ccnc(Cl)c4)n3n2)CC1 [Example 34, N-(2-chloropyridin-4-yl)-6-((trans)-4-(2-cyanoacetamido)cyclohexylamino)-8-(cyclopropylamino)imidazo[1,2-b]pyridazine-3-carboxamide]
102 | 43 | 9950 | – | – | Nc1cc(N[C@H]2CC[C@H](N)CC2)nn2c(C(=O)Nc3ccncc3)cnc12 [Example 39, 8-amino-6-(4-aminocyclohexylamino)-N-(pyridin-4-yl)imidazo[1,2-b]pyridazine-3-carboxamide]
34 | 8 | 140 | – | – | O=C(Nc1ccncc1F)c1cnc2c(Nc3cccc(N[C@H]4CC[C@H](O)CC4)n3)cc(N[C@H]3CC[C@H](O)CC3)nn12 [Example 45, N-(3-fluoro-4-pyridinyl)-6-((trans-4-hydroxycyclohexyl)amino)-8-((6-((trans-4-hydroxycyclohexyl)amino)-2-pyridinyl)amino)imidazo[1,2-b]pyridazine-3-carboxamide]
12300 | 4390 | > 1000 | – | – | CC(=O)Nc1cccc(NC(=O)c2cnc3c(NC4CC4)cc(N[C@H]4CC[C@H](N)CC4)nn23)c1 [Example 83, N-(3-acetamidophenyl)-6-((trans)-4-aminocyclohexylamino)-8-(cyclopropylamino)imidazo[1,2-b]pyridazine-3-carboxamide]
38 | 10 | 200 | – | – | O=C(Nc1ccncc1F)c1cnc2c(NC3CC3)cc(N[C@H]3CC[C@H](NC(=O)[C@H]4CCCN4)CC3)nn12 [Example 104, 8-(cyclopropylamino)-N-(3-fluoro-4-pyridinyl)-6-((trans-4-(D-prolylamino)cyclohexyl)amino)imidazo[1,2-b]pyridazine-3-carboxamide]
31 | 8 | 300 | – | – | NCC(=O)N[C@H]1CC[C@H](Nc2cc(NC3CC3)c3ncc(C(=O)Nc4ccncc4F)n3n2)CC1 [Example 124, 8-(cyclopropylamino)-N-(3-fluoro-4-pyridinyl)-6-((trans-4-(glycylamino)cyclohexyl)amino)imidazo[1,2-b]pyridazine-3-carboxamide]
55 | 13 | 170 | – | – | C[C@H](N)C(=O)N[C@H]1CC[C@H](Nc2cc(NC3CC3)c3ncc(C(=O)Nc4ccnc(F)c4)n3n2)CC1 [Example 134, 6-((trans-4-(L-alanylamino)cyclohexyl)amino)-8-(cyclopropylamino)-N-(2-fluoro-4-pyridinyl)imidazo[1,2-b]pyridazine-3-carboxamide]
21 | 9 | 610 | – | – | N#CCC(=O)N[C@H]1CC[C@H](Nc2cc(NC3CC3)c3ncc(C(=O)Nc4ccnc(F)c4)n3n2)CC1 [Example 138, 6-((trans-4-((cyanoacetyl)amino)cyclohexyl)amino)-8-(cyclopropylamino)-N-(2-fluoro-4-pyridinyl)imidazo [1,2-b]pyridazine-3-carboxamide]
199 | 70 | 340 | – | – | NCCCC(=O)N[C@H]1CC[C@H](Nc2cc(NC3CC3)c3ncc(C(=O)Nc4ccnc(F)c4)n3n2)CC1 [Example 143, 6-((trans-4-((4-aminobutanoyl)amino)cyclohexyl)amino)-8-(cyclopropylamino)-N-(2-fluoro-4-pyridinyl)imidazo [1,2-b]pyridazine-3-carboxamide]
57 | – | 388 | – | – | COC(=O)CN[C@H]1CC[C@H](Nc2cc(NC3CC3)c3ncc(C(=O)Nc4ccncc4F)n3n2)CC1 [Example 523, methyl N-(trans-4-((8-(cyclopropylamino)-3-((3-fluoro-4-pyridinyl)carbamoyl)imidazo[1,2-b]pyridazin-6-yl)amino)cyclohexyl)glycinate]
– | – | – | > 50000 | 10300 | CCOc1ccc(Nc2cc(N[C@H]3CC[C@H](N)CC3)nn3ccnc23)cc1 [I(1), reference compound]
– | – | – | > 50000 | > 50000 | N[C@H]1CC[C@H](Nc2cc(Nc3ccccc3)c3nccn3n2)CC1 [I(7), reference compound]
– | – | – | > 50000 | – | Cc1ccc(Nc2cc(N[C@H]3CC[C@H](N)CC3)nn3ccnc23)nc1 [II(16), reference compound]

— patent US8389527B2, “Substituted imidazopyridazines useful as kinase inhibitors” (Bristol-Myers Squibb Company, priority 2008, dated 2013)
